Values after ≈ are worked out from the molar mass of the structure shown.
How the values were obtained:
Enterococcus faecium = test: Antibacterial activity against vancomycin resistant Enterococcus faecium vanA (VRE); type: functional
Enterococcus hirae = test: Antibacterial activity against Enterococcus hirae ATCC 8043; type: functional
Enterococcus faecalis [1] = test: Antibacterial activity against Enterococcus faecalis W-73; type: functional
Enterococcus faecalis [2] = test: Antibacterial activity against vancomycin resistant Enterococcus faecalis NCTC 12201 (VRE); type: functional
Staphylococcus aureus [3] = test: Antibacterial activity against […] resistant Staphylococcus aureus M126 (MRSA); type: functional
Staphylococcus aureus [4] = test: Antibacterial activity against […] resistant Staphylococcus aureus M133 (MRSA); type: functional
Staphylococcus aureus [5] = test: Antibacterial activity against Staphylococcus aureus 209P JC-1; type: functional
[6] = test system: Staphylococcus epidermidis; test: Antibacterial activity against Staphylococcus epidermidis ATCC 14990; type: functional
Enterococcus faecalis [7] = test: Antibacterial activity against Enterococcus faecalis W-73

SMILES	MIC (Enterococcus faecium)	MIC (Enterococcus hirae)	MIC (Enterococcus faecalis [1])	MIC (Enterococcus faecalis [2])	MIC (Staphylococcus aureus [3])	MIC (Staphylococcus aureus [4])	MIC (Staphylococcus aureus [5])	MIC [6]	MIC (Enterococcus faecalis [7])
C[N+]1(C)CC23c4c5c6c7c8c9c%10c%11c%12c%13c%14c%15c%16c%17c%18c%19c%20c(c2c2c4c4c6c6c8c%10c8c%12c%10c%14c(c%15%19)c%12c%20c2c2c4c6c8c%10c%122)C%18C2c4c6c8c%10c(c4-%17)C%16C%13C%114C[N+](C)(C)CC%104C=9C8C7C5=C6C23C1.[I-].[I-] (centres undefined)	6.25 µg/mL	6.25 µg/mL	6.25 µg/mL	3.12 µg/mL	1.56 µg/mL	1.56 µg/mL	0.78 µg/mL	3.12 µg/mL	
CCCCC1C23C4=c5c6c7c8c9c%10c%11c%12c%13c%14c%15c%16c%17c%18c%19c%20c%21c%22c%23c(c5c5c6c6c8c%11c8c%11c%12c%15c%12c(c%20%16)c%21c%15c%23c5c(c68)c%15c%12%11)C2(C[N+]1(C)C)C%22C%19c1c-%18c2c5c(c13)C4C7C9=C5C1(C2C%17%14)C(CCCC)[N+](C)(C)CC%10%131.[I-].[I-] (centres undefined)	12.5 µg/mL	6.25 µg/mL	6.25 µg/mL	6.25 µg/mL	6.25 µg/mL	6.25 µg/mL	6.25 µg/mL	6.25 µg/mL	
C[N+]1(C)CC23C4=C5C6=C7C8C9=c%10c%11c%12c%13c%14c%15c%16c%17c%18c%19c%20c%21c%22c%23c(c4c4c2c2c%24c%25c(c%10c(c%11%15)c%10c%16c%19c(c%25%10)c%10c%20c%23c4c%24%10)C2C9C73C1)C1C%22=C2c3c(c6c(c-%13c3C(C%14%17)C23C[N+](C)(C)CC%21%183)C%128)C51.[I-].[I-] (centres undefined)	12.5 µg/mL	12.5 µg/mL	12.5 µg/mL	12.5 µg/mL	3.12 µg/mL	0.78 µg/mL	1.56 µg/mL	6.25 µg/mL	
CCCCCCCCCC1C23C4=C5c6c7c8c9c(c%10c%11c%12c%13c%14c%15c%16c%17c%18c%19c%20c%21c%22c%23c%24c(c6c6c8c8c%25c9c%11c%14c%25c9c%15c%18c%11c(c%23%19)c%24c6c8c%119)C5C%22c5c4c4c6c(c5-%21)C(C%20%17)C5(C6=C%12C%10C42)C(CCCCCCCCC)[N+](C)(C)CC%13%165)C73C[N+]1(C)C.[I-].[I-] (centres undefined)	> 100 µg/mL	> 100 µg/mL	> 100 µg/mL	> 100 µg/mL			> 100 µg/mL	> 100 µg/mL	
C[N+]1(C)CC23c4c5c6c7c8c9c%10c%11c%12c%13c%14c%15c%16c%17c%18c%19c%20c%21c(c2c2c4c4c6c9c6c4c4c2c%21c2c%19c(c%18%14)c9c%13c%10c6c9c24)C2=C4c6c(c-%16c9c%10c6C(C5C7=C%10C5(C[N+](C)(C)CC8%115)C9C%15%12)C43C1)C%17C2%20.[I-].[I-] (centres undefined)	6.25 µg/mL	6.25 µg/mL	6.25 µg/mL	6.25 µg/mL	3.12 µg/mL	3.12 µg/mL	3.12 µg/mL	3.12 µg/mL	
CCCCCCC1C23C4=c5c6c7c8c9c%10c%11c%12c%13c%14c%15c%16c%17c%18c%19c%20c%21c%22c%23c(c5c5c6c6c8c%11c8c%11c%12c%15c%12c(c%20%16)c%21c%15c%23c5c(c68)c%15c%12%11)C2(C[N+]1(C)C)C%22C%19c1c-%18c2c5c(c13)C4C7C9=C5C1(C2C%17%14)C(CCCCCC)[N+](C)(C)CC%10%131.[I-].[I-] (centres undefined)	12.5 µg/mL	25 µg/mL		25 µg/mL	12.5 µg/mL	12.5 µg/mL	6.25 µg/mL	12.5 µg/mL	50 µg/mL
CN[C@H](CC(C)C)C(=O)N[C@H]1C(=O)N[C@@H](CC(N)=O)C(=O)N[C@H]2C(=O)N[C@H]3C(=O)N[C@H](C(=O)N[C@H](C(=O)O)c4cc(O)cc(O)c4-c4cc3ccc4O)[C@H](O)c3ccc(c(Cl)c3)Oc3cc2cc(c3O[C@@H]2O[C@H](CO)[C@@H](O)[C@H](O)[C@H]2O[C@H]2C[C@](C)(N)[C@H](O)[C@H](C)O2)Oc2ccc(cc2Cl)[C@H]1O [VANCOMYCIN]	> 100 µg/mL	3.12 µg/mL (≈ 2.15 µM)	3.12 µg/mL (≈ 2.15 µM)	> 100 µg/mL	1.56 µg/mL (≈ 1.08 µM)	1.56 µg/mL (≈ 1.08 µM)	1.56 µg/mL (≈ 1.08 µM)	3.12 µg/mL (≈ 2.15 µM)	

— ChEMBL document CHEMBL1136488, “Antibacterial and antiproliferative activity of cationic fullerene derivatives” (2003)
